Measured values taken from US9518026B2, “5-aminopyrazole-4-carboxamide inhibitors of CDPK1 from T. gondii and C. parvum” (UNIVERSITY OF WASHINGTON THROUGH ITS CENTER FOR …, priority 2013, dated 2016).
Read-outs that look alike come from different tables or passages of the source.

Columns and labels:
[1] = Cytotoxicity against CRL8155 cell line; format: cell-based; conditions: human, CRL8155 cells (lymphoblast, spleen), read-out: Cytotoxicity (CRL8155) EC50
Src = Src (Homo sapiens (Human), UniProt P12931); assay: biochemical
CpCDPK1 = CpCDPK1 (Cryptosporidium parvum (strain Iowa II), UniProt A3FQ16); assay: biochemical; conditions: Table 1; KinaseGlo, Syntide 2 peptide substrate; read-out: CpCDPK1 IC50
TgCDPK1 = TgCDPK1 (Toxoplasma gondii, UniProt Q9BJF5); assay: biochemical; conditions: Table 1; KinaseGlo, Syntide 2 peptide substrate; read-out: TgCDPK1 IC50
Sequence of TgCDPK1 (Q9BJF5 1-507): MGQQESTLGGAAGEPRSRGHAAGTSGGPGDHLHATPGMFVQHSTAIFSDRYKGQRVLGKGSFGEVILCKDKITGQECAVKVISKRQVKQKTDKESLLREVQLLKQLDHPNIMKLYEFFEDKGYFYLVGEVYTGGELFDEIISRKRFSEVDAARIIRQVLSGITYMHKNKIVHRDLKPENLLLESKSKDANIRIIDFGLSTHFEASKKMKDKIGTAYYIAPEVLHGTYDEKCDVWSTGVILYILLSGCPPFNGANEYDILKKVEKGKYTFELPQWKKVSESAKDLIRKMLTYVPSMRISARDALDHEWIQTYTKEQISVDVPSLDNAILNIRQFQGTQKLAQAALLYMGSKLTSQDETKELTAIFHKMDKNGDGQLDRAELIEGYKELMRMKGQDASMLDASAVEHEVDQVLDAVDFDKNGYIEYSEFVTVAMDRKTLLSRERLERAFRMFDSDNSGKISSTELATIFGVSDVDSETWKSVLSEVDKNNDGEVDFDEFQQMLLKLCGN

Sequence of CpCDPK1 (A3FQ16 1-538): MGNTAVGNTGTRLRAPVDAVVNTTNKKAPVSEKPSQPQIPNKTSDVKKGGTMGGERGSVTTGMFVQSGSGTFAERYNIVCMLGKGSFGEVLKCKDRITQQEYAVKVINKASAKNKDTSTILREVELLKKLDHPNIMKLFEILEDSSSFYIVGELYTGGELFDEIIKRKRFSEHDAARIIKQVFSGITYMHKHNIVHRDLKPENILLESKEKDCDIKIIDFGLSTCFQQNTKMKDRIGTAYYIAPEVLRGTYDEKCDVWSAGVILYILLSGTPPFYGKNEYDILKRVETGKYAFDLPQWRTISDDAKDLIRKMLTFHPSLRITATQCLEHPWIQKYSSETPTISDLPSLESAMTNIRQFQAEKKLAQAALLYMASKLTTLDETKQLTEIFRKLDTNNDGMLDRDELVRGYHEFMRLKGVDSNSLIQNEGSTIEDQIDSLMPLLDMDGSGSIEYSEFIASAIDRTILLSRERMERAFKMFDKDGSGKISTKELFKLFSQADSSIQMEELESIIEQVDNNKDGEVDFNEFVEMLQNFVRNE
Sequence of Src (P12931 270-523): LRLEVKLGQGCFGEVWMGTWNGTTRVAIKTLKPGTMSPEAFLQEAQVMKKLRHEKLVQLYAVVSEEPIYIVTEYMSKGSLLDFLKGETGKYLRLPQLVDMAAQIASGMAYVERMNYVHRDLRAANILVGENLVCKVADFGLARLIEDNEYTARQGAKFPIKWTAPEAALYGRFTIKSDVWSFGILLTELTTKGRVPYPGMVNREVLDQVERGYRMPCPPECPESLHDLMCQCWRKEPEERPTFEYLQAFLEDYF

## CC(C)(C)Cn1nc(-c2ccc3ccccc3c2)c(C(N)=O)c1N [Compound 19, 5-amino-3-(naphthalen-2-yl)-1-neopentyl-1H-pyrazole-4-carboxamide]
[1]; Table 2
  EC50: > 40000 nM

## CC(C)(C)n1nc(-c2cnc3cc(F)ccc3c2)c(C(N)=O)c1N [Compound 1545, 5-amino-1-tert-butyl-3-(7-fluoroquinolin-3-yl)-1H-pyrazole-4-carboxamide]
Src; Src IC50 (μM), Table 3
  IC50: > 30 µM
[1]; Table 3
  EC50: > 40000 nM

## CC(C)Oc1ccc2cc(-c3nn(C(C)(C)C)c(N)c3C(N)=O)cnc2c1 [Compound 1569, 5-amino-1-(tert-butyl)-3-(7-isopropoxyquinolin-3-yl)-1H-pyrazole-4-carboxamide]
CpCDPK1
  IC50: 5 nM
[1]; Table 3
  EC50: > 40000 nM

## CCOc1ccc2cc(-c3nn(CCOC)c(N)c3C(N)=O)cnc2c1 [Compound 1594, 5-amino-3-(7-ethoxyquinolin-3-yl)-1-(2-methoxyethyl)-1H-pyrazole-4-carboxamide]
CpCDPK1
  IC50: 172 nM
TgCDPK1
  IC50: 321 nM

## CCOc1ccc2cc(-c3nn(CCOC)c(N)c3C(=O)NCCOC)cnc2c1 [Compound 1595, 5-amino-3-(7-ethoxyquinolin-3-yl)-N,1-bis(2-methoxyethyl)-1H-pyrazole-4-carboxamide]
CpCDPK1
  IC50: 398 nM
TgCDPK1
  IC50: 723 nM

## CCOc1ccc2cc(-c3nn(CC(C)(C)CO)c(N)c3C(N)=O)cnc2c1 [Compound 1596, 5-amino-3-(7-ethoxyquinolin-3-yl)-1-(3-hydroxy-2,2-dimethylpropyl)-1H-pyrazole-4-carboxamide]
Src; Src IC50 (μM), Table 3
  IC50: > 10 µM
[1]; Table 3
  EC50: > 40000 nM

## CCOc1ccc2cc(-c3nn(C(C)(C)C)c(N)c3C(N)=O)ccc2n1 [Compound 1597, 5-amino-1-(tert-butyl)-3-(2-ethoxyquinolin-6-yl)-1H-pyrazole-4-carboxamide]
CpCDPK1
  IC50: 3 nM
Src; Src IC50 (μM), Table 3
  IC50: > 10 µM
[1]; Table 3
  EC50: > 40000 nM

## CCOc1ccc2cc(-c3nn(C4CCCCCC4)c(N)c3C(N)=O)cnc2c1 [Compound 1604, 5-amino-1-cycloheptyl-3-(7-ethoxyquinolin-3-yl)-1H-pyrazole-4-carboxamide]
CpCDPK1
  IC50: 2 nM
Src; Src IC50 (μM), Table 3
  IC50: > 10 µM
[1]; Table 3
  EC50: > 40000 nM

## CCOc1ccc2cc(-c3nn(C4CCCC4)c(N)c3C(N)=O)cnc2c1 [Compound 1605, 5-amino-1-cyclopentyl-3-(7-ethoxyquinolin-3-yl)-1H-pyrazole-4-carboxamide]
CpCDPK1
  IC50: 4 nM
Src; Src IC50 (μM), Table 3
  IC50: > 10 µM
[1]; Table 3
  EC50: > 40000 nM

## CCOc1ccc2cc(-c3nn(C(C(C)C)C(C)C)c(N)c3C(N)=O)cnc2c1 [Compound 1607, 5-amino-1-(2,4-dimethylpentan-3-yl)-3-(7-ethoxyquinolin-3-yl)-1H-pyrazole-4-carboxamide]
CpCDPK1
  IC50: 20 nM
TgCDPK1
  IC50: 99 nM

## CCOc1ccc2cc(-c3nn4c(c3C(N)=O)NC(=O)C4)cnc2c1 [Compound 1609, 6-(7-ethoxyquinolin-3-yl)-2-oxo-2,3-dihydro-1H-imidazo[1,2-b]pyrazole-7-carboxamide]
CpCDPK1
  IC50: 577 nM
TgCDPK1
  IC50: 1430 nM

## CCOc1ccc2cc(-c3nn(C(C)C(C)O)c(N)c3C(N)=O)cnc2c1 (stereo not drawn) [Compound 1611, 5-amino-3-(7-ethoxyquinolin-3-yl)-1-(3-hydroxybutan-2-yl)-1H-pyrazole-4-carboxamide]
CpCDPK1
  IC50: 6 nM
TgCDPK1
  IC50: 19 nM

## CCOc1ccc2cc(-c3nn(C4CCOC4)c(N)c3C(N)=O)cnc2c1 (stereo not drawn) [Compound 1612, 5-amino-3-(7-ethoxyquinolin-3-yl)-1-(tetrahydrofuran-3-yl)-1H-pyrazole-4-carboxamide]
CpCDPK1
  IC50: 3 nM
TgCDPK1
  IC50: 10 nM

## CCOc1ccc2cc(-c3nn(CC(C)(C)CO)c(N)c3C(N)=O)ccc2n1 [Compound 1622, 5-amino-3-(2-ethoxyquinolin-6-yl)-1-(3-hydroxy-2,2-dimethylpropyl)-1H-pyrazole-4-carboxamide]
[1]; Table 3
  EC50: > 40000 nM

## CCOc1ccc2cc(-c3nn(C(C)C(C)(C)O)c(N)c3C(N)=O)cnc2c1 (stereo not drawn) [Compound 1626, 5-amino-3-(7-ethoxyquinolin-3-yl)-1-(3-hydroxy-3-methylbutan-2-yl)-1H-pyrazole-4-carboxamide]
CpCDPK1
  IC50: 13 nM
TgCDPK1
  IC50: 30 nM

## CCOc1ccc2cc(-c3nn(C(C)CO)c(N)c3C(N)=O)cnc2c1 (stereo not drawn) [Compound 1627, 5-amino-3-(7-ethoxyquinolin-3-yl)-1-(1-hydroxypropan-2-yl)-1H-pyrazole-4-carboxamide]
CpCDPK1
  IC50: 9 nM
TgCDPK1
  IC50: 20 nM

## CCOc1ccc2cc(-c3nn(C(CO)CO)c(N)c3C(N)=O)cnc2c1 [Compound 1629, 5-amino-1-(1,3-dihydroxypropan-2-yl)-3-(7-ethoxyquinolin-3-yl)-1H-pyrazole-4-carboxamide]
CpCDPK1
  IC50: 52 nM
TgCDPK1
  IC50: 120 nM

## CC(C)(C)n1nc(-c2cnc3cc(OC4CCC4)ccc3c2)c(C(N)=O)c1N [Compound 1630, 5-amino-1-(tert-butyl)-3-(7-cyclobutoxyquinolin-3-yl)-1H-pyrazole-4-carboxamide]
CpCDPK1
  IC50: 4 nM
TgCDPK1
  IC50: 3 nM

## CCOc1ccc2cc(-c3nn(C(C)C4CC4)c(N)c3C(N)=O)cnc2c1 (stereo not drawn) [Compound 1631, 5-amino-1-(1-cyclopropylethyl)-3-(7-ethoxyquinolin-3-yl)-1H-pyrazole-4-carboxamide]
CpCDPK1
  IC50: 5 nM
TgCDPK1
  IC50: 10 nM

## CCOc1ccc2cc(-c3nn(C4CCCCCC4)c(N)c3C(N)=O)ccc2n1 [Compound 1632, 5-amino-1-cycloheptyl-3-(2-ethoxyquinolin-6-yl)-1H-pyrazole-4-carboxamide]
CpCDPK1
  IC50: 6 nM
TgCDPK1
  IC50: 7 nM

## CCOc1ccc2cc(-c3nn(C(C)C(C)(C)O)c(N)c3C(N)=O)ccc2n1 (stereo not drawn) [Compound 1636, 5-amino-3-(2-ethoxyquinolin-6-yl)-1-(3-hydroxy-3-methylbutan-2-yl)-1H-pyrazole-4-carboxamide]
CpCDPK1
  IC50: 18 nM
TgCDPK1
  IC50: 58 nM

## CCOc1ccc2cc(-c3nn(C(C)C(C)(C)CO)c(N)c3C(N)=O)cnc2c1 (stereo not drawn) [Compound 1637, 5-amino-3-(7-ethoxyquinolin-3-yl)-1-(4-hydroxy-3,3-dimethylbutan-2-yl)-1H-pyrazole-4-carboxamide]
CpCDPK1
  IC50: 4 nM
TgCDPK1
  IC50: 12 nM

## CCOc1ccc2cc(-c3nn(C4(C)CCCCC4)c(N)c3C(N)=O)cnc2c1 [Compound 1640, 5-amino-3-(7-ethoxyquinolin-3-yl)-1-(1-methylcyclohexyl)-1H-pyrazole-4-carboxamide]
CpCDPK1
  IC50: 6 nM
TgCDPK1
  IC50: 9 nM

## CCOc1ccc2cc(-c3nn(CC(C)(C)O)c(N)c3C(N)=O)cnc2c1 [Compound 1641, 5-amino-3-(7-ethoxyquinolin-3-yl)-1-(2-hydroxy-2-methylpropyl)-1H-pyrazole-4-carboxamide]
CpCDPK1
  IC50: 21 nM
TgCDPK1
  IC50: 41 nM

## CCOc1ccc2cc(-c3nn(C4CCC4)c(N)c3C(N)=O)cnc2c1 [Compound 1652]
Src
  IC50: > 10 µM
[1]; Table 3
  EC50: > 40000 nM

## CCOc1ccc2ncc(-c3nn(C(C)(C)C)c(N)c3C(N)=O)cc2c1 [Compound 1654, 5-amino-1-(tert-butyl)-3-(6-ethoxyquinolin-3-yl)-1H-pyrazole-4-carboxamide]
CpCDPK1
  IC50: > 2000 nM
TgCDPK1
  IC50: > 2000 nM

## CCOc1ccc2ncc(-c3nn(C4CCCCC4)c(N)c3C(N)=O)cc2c1 [Compound 1655, 5-amino-1-cyclohexyl-3-(6-ethoxyquinolin-3-yl)-1H-pyrazole-4-carboxamide]
CpCDPK1
  IC50: > 2000 nM
TgCDPK1
  IC50: > 2000 nM

## CCOc1ccc2cc(-c3nn(C(C)C)c(N)c3C(N)=O)ccc2n1 [Compound 1661, 5-amino-3-(2-ethoxyquinolin-6-yl)-1-isopropyl-1H-pyrazole-4-carboxamide]
CpCDPK1
  IC50: 2 nM
TgCDPK1
  IC50: 5 nM
